Assay results from article PMC10525516, “Novel NADPH Oxidase-2 Inhibitors as Potential Anti-Inflammatory and Neuroprotective Agents” (Antioxidants, 2023).

Experiments:
Nox2 = biological target: T1, Nox2 (Homo sapiens, UniProt P04839); experiment: Amplex Red/HRP assay of H2O2 production by PMA-activated dHL60 cells; format: cell-based; conditions: PMA (1 µM)-activated dHL60 cells, 30 min preincubation; read-out: IC50, inhibition of H2O2 production, Amplex Red Assay
T1 construct: endogenous in cells
T1 sequence (P04839 2-570 limits assumed): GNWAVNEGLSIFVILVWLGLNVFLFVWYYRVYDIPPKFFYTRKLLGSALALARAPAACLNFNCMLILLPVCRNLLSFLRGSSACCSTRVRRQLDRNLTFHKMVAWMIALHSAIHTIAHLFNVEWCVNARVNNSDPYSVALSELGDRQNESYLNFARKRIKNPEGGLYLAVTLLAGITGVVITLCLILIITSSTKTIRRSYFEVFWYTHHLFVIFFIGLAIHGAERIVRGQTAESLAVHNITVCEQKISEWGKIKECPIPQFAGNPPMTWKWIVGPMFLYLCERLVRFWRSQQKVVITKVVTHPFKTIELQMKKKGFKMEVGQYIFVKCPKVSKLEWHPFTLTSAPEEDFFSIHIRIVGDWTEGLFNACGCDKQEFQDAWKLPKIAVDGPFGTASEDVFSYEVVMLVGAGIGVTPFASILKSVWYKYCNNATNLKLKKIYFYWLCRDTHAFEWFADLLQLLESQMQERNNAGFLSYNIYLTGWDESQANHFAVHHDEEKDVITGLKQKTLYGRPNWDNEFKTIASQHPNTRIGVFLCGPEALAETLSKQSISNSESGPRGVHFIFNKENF
T1 sequence (P13498 2-195 partner limits assumed): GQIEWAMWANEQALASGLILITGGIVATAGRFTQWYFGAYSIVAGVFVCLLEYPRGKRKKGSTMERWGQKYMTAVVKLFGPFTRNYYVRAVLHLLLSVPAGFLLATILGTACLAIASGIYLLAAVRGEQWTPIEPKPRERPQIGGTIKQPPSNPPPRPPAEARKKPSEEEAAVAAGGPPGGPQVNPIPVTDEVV
Method: Human promyelocytic leukemia HL60 cells (Sigma-Aldrich) were grown in RPMI 1640 medium (Gibco, 11875-093, Billings, MT, USA) supplemented with 10% FBS (Omega Scientific (Tarzana, CA, USA)), 100 units/mL penicillin, and 100 µg/mL streptomycin, and were incubated at 37 °C and 5% carbon dioxide (CO2). For differentiation to neutrophil-like cells, HL60 cells were pelleted and resuspended in fresh media containing 1 µM of all trans-retinoic acid and incubated for four to five days. Nox2 activation was achieved by treating differentiated HL60 (dHL60) cells with 1 µM PMA [24]. Human leukemia monocytic cells, THP-1, were grown in RPMI 1640 medium + GlutaMAX^TM (Gibco, 61870-036) and supplemented with 10% FBS, 10 mM HEPES, and 1 mM sodium pyruvate and incubated at 37 °C in 5% CO2 environment. To induce differentiation into macrophages, THP-1 cells were treated with PMA (100 ng/mL) for 48 h. To test the efficacy of Nox2 inhibitors, treatment was performed with or without the inhibitor, along with PMA [35].
Plate reader-based analyses of the production of O2^•− and H2O2 by PMA-activated dHL60 cells were performed according to a published protocol with minor modifications. Briefly, for the treatment of dHL60 cells with different concentrations of the compounds, 0.5 mL deep-well 96-well plates were used to dispense and store aliquots of their 10 mM DMSO solutions. Using a Multidrop™ PicoIT dispenser (Thermo Scientific), different volumes of the solutions of candidate Nox inhibitors (10 or 50 mM in DMSO) were injected into the bottom of 0.5 mL V-bottom 96-well plates; then, they were sealed with aluminum foil (VWR, Batavia, IL, USA) using a semiautomatic thermal sealer (BT LabSystems, St. Louis, MO, USA) and stored at −20 °C to reduce freeze-thawing the solutions. The plates with inhibitors were allowed to come to room temperature before the addition of the cell suspensions. dHL60 cells were pelleted and resuspended in HBSS (Invitrogen, Waltham, MA, USA) supplemented with 25 mM HEPES (pH 7.4) and 100 µM DTPA to a cell density of 2 × 10^5 cells/mL. dHL60 cells were added to the V-bottom plates at a volume of 210 µL/well. Next, cells were incubated with inhibitors for 30 min at 37 °C in a CO2-free incubator under ambient oxygen and then transferred to black, clear-bottom 96-well plates (200 µL/well) after incubation. Freshly prepared PMA plus probe solutions in HBSS (5× concentrated, 50 µL/well) included PMA (5 µM) with CBA (500 µM) or with Amplex Red (250 µM) plus HRP (0.5 U/mL) for H2O2 detection, or with HE (50 µM) plus DNA (0.5 mg/mL) for O2^•− detection. Once probes + PMA were added, plates were sealed with sealing film and immediately placed in the pre-warmed plate readers (37 °C). Fluorescence intensities were monitored kinetically from the bottom of the plates every 1.3 min for a period of 2 h using Beckman Coulter (Brea, CA, USA) DTX880 and BMG Labtech (Ortenberg, Germany) FLUOstar Omega plate readers. DMSO alone and DPI (10 µM) were used as negative and positive controls, respectively. […] The IC50 values were determined using at least five independent measurements, each consisting of technical quadruplicates per concentration.

[1] = Plasma and brain pharmacokinetics in Sprague Dawley rats; format: in vivo
Method: Blood samples were collected into labeled microtubes containing dipotassium EDTA solution (20%) as an anticoagulant. Plasma was immediately harvested from the blood by centrifugation at 4000 rpm for 10 min at 4 ± 2 °C and stored below −70 °C until bioanalysis. After isolation, brain tissue samples were rinsed three times in ice cold normal saline (for 5–10 s/rinse using ~5–10 mL normal saline in disposable petri dishes for each rinse) and dried on blotting paper. Tissue samples were homogenized using ice-cold phosphate-buffered saline (pH 7.4). The total homogenate volume (µL) was three times the tissue weight (mg). All homogenates were stored below −70 ± 10 °C until bioanalysis. Concentrations of TG15-132 in plasma and brain samples were determined by fit-for-purpose liquid chromatography with the tandem mass spectrometry method (Sai-Life, Hyderabad, India). Phoenix WinNonlin (version 8.0, Certara, Princeton, NJ, USA) was used to analyze the pharmacokinetic parameters.
(§1) Rapid metabolism and the inability to cross the BBB represent major obstacles in the application of bioactive agents in neurodegenerative diseases. Based on the premise that Nox2 plays a major role in oxidative damage and exacerbates neurodegenerative diseases, we envision applications of brain-permeable Nox2 inhibitors in mechanistic studies in vivo, and, long-term, in the development of novel therapeutic strategies. Therefore, we performed in vivo pharmacokinetics studies to determine the time profile of plasma concentration and accumulation of TG15-132 in the brain tissue of Sprague Dawley rats and C57BL6 mice.

[2] = In vivo pharmacokinetics / brain penetration, species not specified (rodent models); conditions: rat, intraperitoneal, 20 mg/kg, rodent models
Text: as §1

IC50 (Nox2): 7.9 ± 3 µM
Kp at 8 h ([1]; rat, brain, ip, 20 mg/kg i.p., up to 8 h after administration, read-out: brain-to-plasma ratio): > 10
half-life ([1]; rat, brain, ip, single dose 20 mg/kg i.p., read-out: brain half-life (converted)): 5.6 h
AUC(0-inf) ([1]; rat, plasma, ip, single dose 20 mg/kg i.p.): 10200 ng·h/mL
half-life ([1]; rat, plasma, ip, single dose 20 mg/kg i.p., read-out: plasma half-life (converted)): 3.7 h
clearance rate ([1]; single dose 20 mg/kg i.p.): 32.8 mL/min/kg
Kp ([2]; Sprague Dawley (rat), C57BL6 (mouse), mouse, brain, read-out: brain-to-plasma ratio (abstract)): > 5
half-life ([2]; Sprague Dawley, plasma, read-out: plasma half-life (abstract) (converted)): 5.6 h
SMILES: CN(C)CCCn1c(SCCc2c[nH]c3ccccc23)nc2ccc(F)cc2c1=O [TG15-132]
